Among the data in ChEMBL document CHEMBL4680314, “Discovery of potent glycogen synthase kinase 3/cholinesterase inhibitors with neuroprotection as potential therapeutic agent for Alzheimer's disease” (Bioorg Med Chem, 2021) are IC50 and Papp values, retold here.

Structures are written as SMILES. pIC50: −log10 of the molar value. Where only a bound is given, the exact number is not on record here.

The first data set deals with Cholinesterase (Homo sapiens, UniProt P06276). As to the kind of experiment: Inhibition of human BChE using butyrylthiocholineiodide as substrate incubated for 10 mins by Ellman's method.
Chain of Cholinesterase (P06276 whole entry): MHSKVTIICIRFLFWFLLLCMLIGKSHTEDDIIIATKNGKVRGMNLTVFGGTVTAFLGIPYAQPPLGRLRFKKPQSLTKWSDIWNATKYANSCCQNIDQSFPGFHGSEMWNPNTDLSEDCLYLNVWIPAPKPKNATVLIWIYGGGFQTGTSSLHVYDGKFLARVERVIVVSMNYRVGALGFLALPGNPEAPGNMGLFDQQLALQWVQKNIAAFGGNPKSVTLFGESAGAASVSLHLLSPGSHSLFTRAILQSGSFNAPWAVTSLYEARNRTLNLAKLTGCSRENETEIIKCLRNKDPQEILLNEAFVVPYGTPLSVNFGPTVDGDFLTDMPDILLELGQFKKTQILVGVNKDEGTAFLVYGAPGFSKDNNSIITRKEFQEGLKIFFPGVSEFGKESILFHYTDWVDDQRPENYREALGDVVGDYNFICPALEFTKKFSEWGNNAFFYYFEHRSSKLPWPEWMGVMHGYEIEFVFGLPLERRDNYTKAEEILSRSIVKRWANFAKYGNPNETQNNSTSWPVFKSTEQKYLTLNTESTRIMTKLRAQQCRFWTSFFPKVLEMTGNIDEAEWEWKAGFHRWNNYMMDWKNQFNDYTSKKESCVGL
Details: not given
In the case of `NC(=O)c1sc(-c2ccnc(NC(=O)C3CC3)c2)nc1OCCC1CCN(Cc2ccccc2F)CC1`, the pIC50 is 4.39.

As for `CNC(=O)c1sc(-c2ccnc(NC(=O)C3CC3)c2)nc1OCC1CCN(Cc2cccc(Br)c2)CC1`, the pIC50 is 4.82.

As to `CNC(=O)c1sc(-c2ccnc(NC(=O)C3CC3)c2)nc1OCC1CCN(Cc2ccccc2F)CC1`, the pIC50 is 4.96.

`NC(=O)c1sc(-c2ccnc(NC(=O)C3CC3)c2)nc1O` showed a pIC50 of less than 3.00.

In the case of `NC(=O)c1sc(-c2ccnc(NC(=O)C3CC3)c2)nc1OCCCC1CCN(Cc2cccc(F)c2)CC1`, the pIC50 was 5.74.

For `CNC(=O)c1sc(-c2ccnc(NC(=O)C3CC3)c2)nc1OCC1CCN(Cc2ccccc2)CC1`, the pIC50 is 4.85.

Compound `NC(=O)c1sc(-c2ccnc(NC(=O)C3CC3)c2)nc1OCCC1CCN(Cc2cccc(F)c2)CC1` gave a pIC50 of 3.53.

Compound `NC(=O)c1sc(-c2ccnc(NC(=O)C3CC3)c2)nc1OCCC1CCN(Cc2ccccc2)CC1` showed a pIC50 of 4.82.

In the case of `NC(=O)c1sc(-c2ccnc(NC(=O)C3CC3)c2)nc1OCCC1CCN(Cc2ccccn2)CC1`, the pIC50 is 4.06.

The target of another data set is Glycogen synthase kinase-3 beta (Homo sapiens, UniProt P49841). The experiment in a line: biochemical.
Chain of Glycogen synthase kinase-3 beta (P49841 whole entry): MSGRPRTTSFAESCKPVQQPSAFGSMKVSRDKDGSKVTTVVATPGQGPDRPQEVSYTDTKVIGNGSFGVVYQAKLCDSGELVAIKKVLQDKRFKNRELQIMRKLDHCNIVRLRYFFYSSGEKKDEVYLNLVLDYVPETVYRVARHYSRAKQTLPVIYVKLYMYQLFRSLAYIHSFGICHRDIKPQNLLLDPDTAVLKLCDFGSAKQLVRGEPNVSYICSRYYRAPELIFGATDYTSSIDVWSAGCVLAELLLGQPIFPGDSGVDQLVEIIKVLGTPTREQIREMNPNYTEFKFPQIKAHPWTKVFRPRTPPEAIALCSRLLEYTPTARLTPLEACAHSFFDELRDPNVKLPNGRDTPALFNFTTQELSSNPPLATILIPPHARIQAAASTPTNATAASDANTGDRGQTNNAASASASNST
Details: not given
Compound `COc1cc2c(cc1OC)C(=O)C(CC1CCN(Cc3ccccc3)CC1)C2` (stereo not drawn) [DONEPEZIL] gave a negative-log IC50 (pIC50) of less than 6.00.

Compound `NC(=O)c1sc(-c2ccnc(NC(=O)C3CC3)c2)nc1OCCC1CCN(Cc2ccccc2F)CC1` gave a pIC50 of 6.58.

`CNC(=O)c1sc(-c2ccnc(NC(=O)C3CC3)c2)nc1OCC1CCN(Cc2cccc(Br)c2)CC1` gave a pIC50 of 7.31.

Regarding `CNC(=O)c1sc(-c2ccnc(NC(=O)C3CC3)c2)nc1OCC1CCN(Cc2ccccc2F)CC1`, the negative-log IC50 (pIC50) is 7.85.

With `NC(=O)c1sc(-c2ccnc(NC(=O)C3CC3)c2)nc1O`, the pIC50 was 7.96.

The compound `NC(=O)c1sc(-c2ccnc(NC(=O)C3CC3)c2)nc1OCCCC1CCN(Cc2cccc(F)c2)CC1` gave a pIC50 of 8.05.

For `CNC(=O)c1sc(-c2ccnc(NC(=O)C3CC3)c2)nc1OCC1CCN(Cc2ccccc2)CC1`, the negative logarithm of the IC50 (pIC50) was 7.80.

The compound `NC(=O)c1sc(-c2ccnc(NC(=O)C3CC3)c2)nc1OCCC1CCN(Cc2cccc(F)c2)CC1` gave a pIC50 of 7.59.

Compound `NC(=O)c1sc(-c2ccnc(NC(=O)C3CC3)c2)nc1OCCC1CCN(Cc2ccccc2)CC1` had a pIC50 of 7.72.

Compound `NC(=O)c1sc(-c2ccnc(NC(=O)C3CC3)c2)nc1OCCC1CCN(Cc2ccccn2)CC1` showed a pIC50 of 6.71.

Tested on in a further data set: not listed separately
The experiment in a line: in vitro. Conditions: PAMPA.
Description: Effective permeability of compound in PBS/EtOH buffer (7:3) at 25 ug/ml incubated for 18 hrs by PAMPA-BBB assay
`CCn1cc(C(=O)O)c(=O)c2ccc(-n3cccc3)cc21`: the Papp at 18 h, 25 ug/ml was determined as 2.5 ×10⁻⁶ cm/s.

As to `CCn1cc(C(=O)O)c(=O)c2cc(F)c(N3CCNC(C)C3)c(F)c21` (stereo not drawn) [LOMEFLOXACIN], the apparent permeability (Papp) at 18 h, 25 ug/ml was 0.9 ×10⁻⁶ cm/s.

Compound `NC(=O)c1sc(-c2ccnc(NC(=O)C3CC3)c2)nc1OCCCC1CCN(Cc2cccc(F)c2)CC1` yielded an apparent permeability coefficient (Papp) at 18 h, 25 ug/ml of 8.6 ×10⁻⁶ cm/s.

Consider `NC(=O)c1sc(-c2ccnc(NC(=O)C3CC3)c2)nc1OCCC1CCN(Cc2cccc(F)c2)CC1`, for which the Papp at 18 h, 25 ug/ml was 7 ×10⁻⁶ cm/s.

Compound `NC(=O)c1sc(-c2ccnc(NC(=O)C3CC3)c2)nc1OCCC1CCN(Cc2ccccc2)CC1` showed a Papp at 18 h, 25 ug/ml of 8.8 ×10⁻⁶ cm/s.

For the next data set, the target named is Acetylcholinesterase (Homo sapiens, UniProt P22303). The experiment in a line: Inhibition of human recombinant AChE expressed in HEK293 cells using acetylthiocholine iodide as substrate incubated for 10 mins by Ellman's method. The format is cell-based.
Chain of Acetylcholinesterase (P22303 whole entry): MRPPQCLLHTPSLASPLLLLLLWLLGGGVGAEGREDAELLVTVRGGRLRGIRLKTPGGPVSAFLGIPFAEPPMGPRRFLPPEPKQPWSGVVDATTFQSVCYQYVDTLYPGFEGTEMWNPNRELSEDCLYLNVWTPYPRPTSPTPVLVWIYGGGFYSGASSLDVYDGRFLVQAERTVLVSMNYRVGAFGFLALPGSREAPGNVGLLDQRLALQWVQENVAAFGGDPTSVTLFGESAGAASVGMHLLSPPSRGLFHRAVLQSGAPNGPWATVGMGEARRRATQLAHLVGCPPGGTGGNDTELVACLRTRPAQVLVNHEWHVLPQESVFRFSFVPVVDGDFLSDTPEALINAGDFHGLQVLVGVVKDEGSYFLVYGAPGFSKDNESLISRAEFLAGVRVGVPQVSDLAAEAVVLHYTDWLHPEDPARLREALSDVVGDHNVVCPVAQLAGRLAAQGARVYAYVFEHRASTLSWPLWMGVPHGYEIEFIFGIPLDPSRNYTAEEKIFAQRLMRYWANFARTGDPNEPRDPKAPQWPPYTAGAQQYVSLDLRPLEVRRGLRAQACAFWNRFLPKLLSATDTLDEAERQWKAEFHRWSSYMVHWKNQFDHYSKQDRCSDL
Details: not given
For `NC(=O)c1sc(-c2ccnc(NC(=O)C3CC3)c2)nc1OCCC1CCN(Cc2ccccc2F)CC1`, the negative logarithm of the IC50 (pIC50) is 5.11.

Consider `CNC(=O)c1sc(-c2ccnc(NC(=O)C3CC3)c2)nc1OCC1CCN(Cc2cccc(Br)c2)CC1`, for which the pIC50 is 3.40.

`CNC(=O)c1sc(-c2ccnc(NC(=O)C3CC3)c2)nc1OCC1CCN(Cc2ccccc2F)CC1`: the negative-log IC50 (pIC50) was 5.05.

For the compound `NC(=O)c1sc(-c2ccnc(NC(=O)C3CC3)c2)nc1O`, the negative logarithm of the IC50 (pIC50) is less than 3.00.

As for `NC(=O)c1sc(-c2ccnc(NC(=O)C3CC3)c2)nc1OCCCC1CCN(Cc2cccc(F)c2)CC1`, the negative-log IC50 (pIC50) is 5.52.

For `CNC(=O)c1sc(-c2ccnc(NC(=O)C3CC3)c2)nc1OCC1CCN(Cc2ccccc2)CC1`, the pIC50 was 5.10.

Consider `NC(=O)c1sc(-c2ccnc(NC(=O)C3CC3)c2)nc1OCCC1CCN(Cc2cccc(F)c2)CC1`, for which the negative logarithm of the IC50 (pIC50) is 5.33.

`NC(=O)c1sc(-c2ccnc(NC(=O)C3CC3)c2)nc1OCCC1CCN(Cc2ccccc2)CC1`: the pIC50 was 6.14.

Turning to `NC(=O)c1sc(-c2ccnc(NC(=O)C3CC3)c2)nc1OCCC1CCN(Cc2ccccn2)CC1`, the pIC50 was 5.18.
